# From patent publication US10239957B2, “Peptide containing conjugates for dual molecular delivery of oligonucleotides” (Merck Sharp & Dohme Corp., priority 2013, dated 2019)
# Where no end group is shown, it is not given here. [ ]: non-standard residue; d: D form. TGN = not defined here
# Test system: CTNNB1
# Assay: In vivo evaluation in mice: liver mRNA knockdown measurement
# Experimental: Female CD-1 mice (Charles River) were injected in accordance with either a sequential dosing paradigm or a co-dosing paradigm. In the sequential dosing paradigm, the targeted siRNA (SCE) is dosed at t=0 and the targeted peptide is separately dosed up to 2 hr before the SCE (−2 hr) or up to 24 hr after the SCE (+24 hr). In the co-dosing paradigm, the SCE and peptides are co-formulated and dosed together in the same formulation as a single injection at t=0. The mice were dosed either by intravenous (i.v.) or subcutaneous (s.c.) injection of SCE and peptide. For the i.v. doses, the compounds were injected into the tail vein of the mice. For the s.c. doses, the compounds were injected in the subcutaneous space on the back of the mouse between the shoulder blades. At the indicated harvest times (measured from t=0 when the siRNA was dosed, regardless of when the peptide was dosed), the animals were sacrificed and 3 mm liver punches were collected, preserved in RNAlater (Ambion), and stored at 4° C. Separate 5 mm liver punches were collected, placed in 96-well plates, frozen on dry ice, and stored at −80° C. until use.
# The 3 mm liver punches were removed from RNAlater and homogenized in Trizol (Invitrogen) using a bead mill tissue lyser (Qiagen); disruption was performed for two 5-minute cycles at 30 Hz. RNA extraction was performed using 1-bromo-2-chloropropane (Acros Organics) and total RNA was isolated from the aqueous phase using the MagMax RNA isolation method (Ambion). […] TaqMan qPCR analysis was performed with an ABI 7900 Real-Time PCR System using TaqMan Fast Advanced Master Mix (Applied Biosystems). All TaqMan probes and primers for CTNNB1 and PPIB (housekeeping gene) were purchased from Applied Biosystems as pre-validated gene expression assays. Results are calculated by the comparative Ct method, where the difference between the CTNNB1 Ct value and the PPIB Ct value (ΔCt) is calculated and then further normalized relative to the PBS control by taking a second difference (ΔΔCt), as described previously (1).
# [1] = Table 8 (linkage comparison), TGN-L-siRNA-II 0.25 mg/kg, peptide 1 mg/kg
# [2] = Table 8 (linkage comparison), TGN-L-siRNA-II 0.25 mg/kg, peptide 3 mg/kg
# [3] = mice, TGN-L-siRNA-II 0.25 mg/kg IV, peptide 1 mg/kg IV 15 min after siRNA
# [4] = mice, TGN-L-siRNA-II 0.25 mg/kg IV, peptide 3 mg/kg IV 15 min after siRNA
# [5] = mice, TGN-L-siRNA-III 0.25 mg/kg IV, peptide 2 mg/kg IV 15 min after siRNA
# [6] = mice, TGN-L-siRNA-III 0.25 mg/kg IV, peptide 10 mg/kg IV 15 min after siRNA
# [7] = mice, TGN-L-siRNA-III 0.5 mg/kg IV, peptide 5 mg/kg IV 15 min after siRNA
# [8] = mice, TGN-L-siRNA-III 0.5 mg/kg IV, peptide 2 mg/kg IV 15 min after siRNA
# [9] = mice, TGN-L-siRNA-III 0.5 mg/kg IV, peptide 10 mg/kg IV 15 min after siRNA
# [10] = mice, TGN-L-siRNA-III 0.25 mg/kg IV, peptide 5 mg/kg IV 15 min after siRNA
substance,measurement,setting,value
TGN-CDM-SEQ ID NO: 1801 (D): TGN-CDM peptide; peptide glfgeieelieeglenlidwgng; C8 made from the same all(D) sequence (G[dL][dF]G[dE][dI][dE][dE][dL][dI][dE][dE]G[dL][dE][dN][dL][dI][dD][dW]G[dN]G; also: TGN-CDM conjugate; listed as Homo sapiens),In vivo mRNA knockdown,[1],23.0%
same,In vivo mRNA knockdown,[2],24.9%
TGN-ECL-SEQ ID NO: 1802 (D): TGN-ECL-peptide; peptide gffgaiwefihsil (G[dF][dF]G[dA][dI][dW][dE][dF][dI][dH][dS][dI][dL]; also: TGN-ECL conjugate; listed as Homo sapiens),In vivo mRNA knockdown,[1],28.7%
same,In vivo mRNA knockdown,[2],64.0%
TGN-S-S- SEQ ID NO: 1738 (D) (G[dL][dF]G[dE][dI][dE][dE][dL][dI][dE][dE]G[dL][dE][dN][dL][dI][dD][dW]G[dN]G[dL][dA][dE][dL][dA][dE][dA][dL][dE][dA][dL][dA][dA]GG[dS][dC]; not fully specified (residue 40); also: TGN attached via disulfide; listed as Homo sapiens),In vivo mRNA knockdown,[3],25%
same,In vivo mRNA knockdown,[4],44%
"TGN-S-S-SEQ ID NO: 935 (L) (C(TGN)GFFGEIAELIWEGLKNLIDWWNG; reading uncertain; also: TGN linked to Cys via disulfide, TGN not defined; listed as Homo sapiens)",In vivo mRNA knockdown,[5],17%
same,In vivo mRNA knockdown,[6],23%
TGN-S-S-SEQ ID NO: 1248 (L) (C(TGN)FLEELWELLEHLL; reading uncertain; also: TGN disulfide conjugate at Cys1; listed as Homo sapiens),In vivo mRNA knockdown,[7],24%
TGN-S-S-SEQ ID NO: 1403 (L) (C(TGN)GLLEEIEELLEEGLENLIDWWNS; reading uncertain; also: TGN disulfide conjugate at Cys1; listed as Homo sapiens),In vivo mRNA knockdown,[5],22%
same,In vivo mRNA knockdown,[6],24%
TGN-S-S-SEQ ID NO: 1489 (D) ([dC][dL][dE][dL][dW][dL][dE][dH][dL][dF][dL][dE][dL][dE]; not fully specified (residue 1); also: TGN attached via disulfide; listed as Homo sapiens),In vivo mRNA knockdown,[8],37%
same,In vivo mRNA knockdown,[9],26%
same,In vivo mRNA knockdown,"mice, TGN-L-siRNA-III 0.5 mg/kg IV, peptide 25 mg/kg IV 15 min after siRNA",34%
TGN-S-S-SEQ ID NO: 1516 (L) (C(TGN)GLFAEIEELLEEGLENLIDWWNG; reading uncertain; also: TGN disulfide conjugate at Cys1; listed as Homo sapiens),In vivo mRNA knockdown,[10],14%
TGN-S-S-SEQ ID NO: 1643 (D) ([dC]G[dF][dF]G[dE][dI][dA][dE][dL][dI][dE][dE]G[dL][dK][dN][dL][dI][dD][dW]G[dN]G; not fully specified (residue 1); also: TGN attached via disulfide; listed as Homo sapiens),In vivo mRNA knockdown,[6],41%
TGN-S-S-SEQ ID NO: 1716 (L) (C(TGN)GLFEELAGLLWHGLKNLIDWWNG; reading uncertain; also: TGN disulfide conjugate at Cys1; listed as Homo sapiens),In vivo mRNA knockdown,[7],39%
TGN-S-S-SEQ ID NO: 1717(L): TGN-S-S-peptide; peptide CFLGALFHALSHLLENLIDWWNG (C(TGN)FLGALFHALSHLLENLIDWWNG; reading uncertain; also: TGN disulfide conjugate at Cys1; listed as Homo sapiens),In vivo mRNA knockdown,[7],16%
TGN-S-S-SEQ ID NO: 1719 (L) (C(TGN)GLFAEIEELIWEGLENLIDWWNQ; reading uncertain; also: TGN disulfide conjugate at Cys1; listed as Homo sapiens),In vivo mRNA knockdown,[10],25%
TGN-S-S-SEQ ID NO: 1725 (L) (C(TGN)SSAWWSYWPPVA; reading uncertain; also: TGN disulfide conjugate at Cys1; listed as Homo sapiens),In vivo mRNA knockdown,[6],19%
TGN-S-S-SEQ ID NO: 1726(D): TGN-S-S-peptide; peptide CGLFAVIKKVASVIGGL ([dC]G[dL][dF][dA][dV][dI][dK][dK][dV][dA][dS][dV][dI]GG[dL]; not fully specified (residue 1); also: TGN attached via disulfide; listed as Homo sapiens),In vivo mRNA knockdown,[6],23%
TGN-S-S-SEQ ID NO: 1727 (D): TGN-S-S-peptide; peptide CGLFAVIHHVASVIGGL ([dC]G[dL][dF][dA][dV][dI][dH][dH][dV][dA][dS][dV][dI]GG[dL]; not fully specified (residue 1); also: TGN attached via disulfide; listed as Homo sapiens),In vivo mRNA knockdown,[6],26%
TGN-S-S-SEQ ID NO: 1728(D): TGN-S-S-peptide; peptide CGLFAVIEEVASVIGGL ([dC]G[dL][dF][dA][dV][dI][dE][dE][dV][dA][dS][dV][dI]GG[dL]; not fully specified (residue 1); also: disulfide to TGN peptide via Cys1; listed as Homo sapiens),In vivo mRNA knockdown,[6],23%
"TGN-S-S-SEQ ID NO: 1729 (L) (C(TGN)GPSQPTYPGDDAPVRDLIRFYRDLRRYLNVVTRHRY; reading uncertain; also: TGN linked to Cys via disulfide, TGN not defined; listed as Homo sapiens)",In vivo mRNA knockdown,[6],10%
TGN-S-S-SEQ ID NO: 1740 (D): TGN-S-S-peptide; peptide GLFEAIEGFIENGWEGLAELAEALEALAAGGSC (G[dL][dF][dE][dA][dI][dE]G[dF][dI][dE][dN]G[dW][dE]G[dL][dA][dE][dL][dA][dE][dA][dL][dE][dA][dL][dA][dA]GG[dS][dC]; not fully specified (residue 33); also: disulfide to TGN peptide via Cys33; listed as Homo sapiens),In vivo mRNA knockdown,[3],23%
same,In vivo mRNA knockdown,[4],42%
"TGN-S-S-SEQ ID NO: 1741(L): TGN-S-S-peptide; peptide GLFGALAEALAEALAEHLAEALAEALEALAAGGSC (GLFGALAEALAEALAEHLAEALAEALEALAAGGSC(TGN); reading uncertain; also: TGN linked to Cys via disulfide, TGN not defined; listed as Homo sapiens)",In vivo mRNA knockdown,[4],24%
TGN-S-S-SEQ ID NO: 1744 (D) ([dC][dE][dE][dN][dW][dI]G[dL][dF]GGG[dN][dI][dW][dE][dE][dE][dE][dI][dL][dD][dL][dL]; not fully specified (residue 1); also: disulfide to TGN peptide via Cys1; listed as Homo sapiens),In vivo mRNA knockdown,[8],28%
same,In vivo mRNA knockdown,[9],33%
"siRNA-IV: CTNNB1 siRNA; passenger SEQ ID NO 1807 (clickA, 5Chol), guide SEQ ID NO 1806 (sense CUGUUGGAUUGAUUCGAAAUU; guide TUUCGAAUCAAUCCAACAGUU; click A, 5' cholesterol; vinylphosphonate MOE T; (1)..(1) aminohexyl phosphate inverted abasic cap; (1)..(2) 2′-O-methyl; (3)..(3) 2′-deoxy-2′-fluoro; (4)..(5) 2′-O-methyl; (6)..(8) 2′-deoxy-2′-fluoro; (9)..(10) 2′-O-methyl; (11)..(12) 2′-deoxy-2′-fluoro; (13)..(15) 2′-O-methyl; (16)..(16) 2′-deoxy-2′-fluoro; (17)..(17) 2′ propagyl; (18)..(19) 2′-deoxy-2′-fluoro; (20)..(21) 2′-O-methyl; (20)..(21) phosphorothioate internucleotide linkage; (21)..; (1)..(1) terminal vinyl phosphate; (1)..(1) 2′-methoxyethoxy; (2)..(21) ribonucleotide unmodified or modified as described for this sequence; …)",In vivo mRNA knockdown,"mice, targeted siRNA alone 0.5 mg/kg IV, peptide dose 0",25%
same,In vivo mRNA knockdown,"mice, targeted siRNA alone 2 mg/kg IV, peptide dose 0",25%
same,In vivo mRNA knockdown,"mice, targeted siRNA alone 5 mg/kg IV, peptide dose 0",35%
